Measured values reported in ChEMBL document CHEMBL4219155, “Structure-based drug design of 1,3,6-trisubstituted 1,4-diazepan-7-ones as selective human kallikrein 7 inhibitors” (Bioorg Med Chem Lett, 2018).

How the values were obtained:
Trypsin = Trypsin (Homo sapiens, UniProt P07477+P07478+P35030); assay: Inhibition of human trypsin using Boc-Gln-Ala-Arg-MCA as substrate preincubated for 10 mins followed by substrate addition measured after 30 mins by fluorescence assay; format: protein assay
Kallikrein-5 = molecular target: T1, Kallikrein-5 (Homo sapiens, UniProt Q9Y337); assay: Inhibition of recombinant human KLK5 using Boc-Val-Pro-Arg-MCA as substrate preincubated for 10 mins followed by substrate addition measured after 30 mins by fluorescence assay
T1 sequence (Q9Y337 whole entry): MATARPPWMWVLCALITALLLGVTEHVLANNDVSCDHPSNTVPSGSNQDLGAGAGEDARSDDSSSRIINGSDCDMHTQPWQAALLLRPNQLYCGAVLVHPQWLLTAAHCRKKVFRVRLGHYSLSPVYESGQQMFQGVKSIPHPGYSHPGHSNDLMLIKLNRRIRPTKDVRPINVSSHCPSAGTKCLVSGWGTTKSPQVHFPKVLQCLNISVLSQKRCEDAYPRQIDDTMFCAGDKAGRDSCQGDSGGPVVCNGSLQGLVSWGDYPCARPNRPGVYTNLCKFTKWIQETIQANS

[1] = Inhibition of human chymotrypsin using Suc-Ala-Ala-Pro-Phe-MCA as substrate preincubated for 10 mins followed by substrate addition measured after 30 mins by fluorescence assay
Kallikrein-7 = Kallikrein-7 (Homo sapiens, UniProt P49862); assay: Inhibition of recombinant human KLK7 using MOCAc-Arg-Pro-Lys-Pro-Val-Glu-Nva-Trp-Arg-Lys(Dnp)-NH2 as substrate preincubated for 10 mins followed by substrate addition measured after 30 mins by fluorescence assay
Sequence of Kallikrein-7 (P49862 whole entry): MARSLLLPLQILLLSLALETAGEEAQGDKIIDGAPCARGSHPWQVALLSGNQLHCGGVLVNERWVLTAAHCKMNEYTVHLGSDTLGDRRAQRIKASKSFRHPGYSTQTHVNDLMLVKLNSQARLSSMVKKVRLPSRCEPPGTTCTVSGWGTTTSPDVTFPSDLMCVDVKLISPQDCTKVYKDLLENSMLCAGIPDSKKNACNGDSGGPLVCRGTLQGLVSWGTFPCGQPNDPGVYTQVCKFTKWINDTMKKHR

Structure (SMILES)	IC50 (Trypsin) [nM]	IC50 (Kallikrein-5) [nM]	IC50 [1] [nM]	IC50 (Kallikrein-7) [nM]
COc1ccc(Cl)cc1C[C@@H]1CN/C(=N\N(C)C)CN(CC(=O)Nc2cccc(C(F)(F)F)c2)C1=O				4300
COc1ccc(Cl)cc1C[C@@H]1CN/C(=N\N(C)C)CN(CC(=O)Nc2cccc(S(=O)(=O)N(C)C)c2)C1=O				990
COc1ccc(Cl)cc1C[C@@H]1CN/C(=N\N(C)C)CN(CC(=O)Nc2cccc(C(=O)N(C)C)c2)C1=O				2500
COc1cccc(NC(=O)CN2C/C(=N/N(C)C)NC[C@@H](Cc3cc(Cl)ccc3OC)C2=O)c1				2700
COc1ccc(Cl)cc1C[C@@H]1CN/C(=N\N(C)C)CN(CC(=O)Nc2cccc(S(=O)(=O)C(F)(F)F)c2)C1=O				3900
CNC(=O)c1cccc(NC(=O)CN2C/C(=N/N(C)C)NC[C@@H](Cc3cc(Cl)ccc3OC)C2=O)c1				940
COc1ccc(Cl)cc1C[C@@H]1CN/C(=N\N(C)C)CN(CC(=O)Nc2cccc(C#N)c2)C1=O				5300
COc1ccc(Cl)cc1C[C@@H]1CN/C(=N\N(C)C)CN(CC(=O)Nc2cccc(-c3cccs3)c2)C1=O				870

Now from value to compound:

IC50 (Trypsin) [nM]	IC50 (Kallikrein-5) [nM]	IC50 [1] [nM]	IC50 (Kallikrein-7) [nM]	Structure (SMILES)
> 30000	> 30000	3100	58	COc1ccc(Cl)cc1C[C@@H]1CN/C(=N\N(C)C)CN([C@@H](C)C(=O)Nc2cccc(-c3cnn(C)c3)c2)C1=O
> 30000	> 30000	> 30000	520	COc1ccc(Cl)cc1C[C@@H]1CN/C(=N\N(C)C)CN(CC(=O)Nc2cccc(-c3cnn(C)c3)c2)C1=O
			920	COc1ccc(Cl)cc1C[C@@H]1CN/C(=N\N(C)C)CN([C@H](C)C(=O)Nc2cccc(-c3cnn(C)c3)c2)C1=O
			7000	CCC[C@H](C(=O)Nc1cccc(-c2cnn(C)c2)c1)N1C/C(=N/N(C)C)NC[C@@H](Cc2cc(Cl)ccc2OC)C1=O
			590	COc1ccc(Cl)cc1C[C@@H]1CN/C(=N\N(C)C)CN(CC(=O)Nc2cccc(-c3ccco3)c2)C1=O
			1500	COc1ccc(Cl)cc1C[C@@H]1CN/C(=N\N(C)C)CN(CC(=O)Nc2cccc(-c3ccsc3)c2)C1=O
			2800	CC[C@H](C(=O)Nc1cccc(-c2cnn(C)c2)c1)N1C/C(=N/N(C)C)NC[C@@H](Cc2cc(Cl)ccc2OC)C1=O
			4100	CCCC[C@H](C(=O)Nc1cccc(-c2cnn(C)c2)c1)N1C/C(=N/N(C)C)NC[C@@H](Cc2cc(Cl)ccc2OC)C1=O
			450	CC[C@@H](C(=O)Nc1cccc(-c2cnn(C)c2)c1)N1C/C(=N/N(C)C)NC[C@@H](Cc2cc(Cl)ccc2OC)C1=O
			670	COc1ccc(Cl)cc1C[C@@H]1CN/C(=N\N(C)C)CN(CC(=O)Nc2cccc(-c3ccoc3)c2)C1=O
			110	CCCC[C@@H](C(=O)Nc1cccc(-c2cnn(C)c2)c1)N1C/C(=N/N(C)C)NC[C@@H](Cc2cc(Cl)ccc2OC)C1=O
> 30000	> 30000	1300	48	CCC[C@@H](C(=O)Nc1cccc(-c2cnn(C)c2)c1)N1C/C(=N/N(C)C)NC[C@@H](Cc2cc(Cl)ccc2OC)C1=O
